Consider 22 compounds from ChEMBL document CHEMBL5126668, “The Invention of WM382, a Highly Potent PMIX/X Dual Inhibitor toward the Treatment of Malaria” (ACS Med Chem Lett, 2022).

For experiment [1], the system named is Plasmodium falciparum. The experiment is described as follows: Antimalarial activity against asexual blood stage Plasmodium falciparum infected in RBC measured after 72 hrs by LDH release assay. Format: functional, organism-based. The following applies: Erythrocyte.
In experiment [2] the target is Plasmepsin X (Plasmodium falciparum (isolate 3D7), UniProt Q8IAS0). The experiment is described as follows: Inhibition of Plasmodium falciparum 3D7 HA-glms-tagged PMX using DABCYL-HSFIQEGKEE-EDANS as substrate measured after 2 hrs by FRET assay.
Sequence of Plasmepsin X (Q8IAS0 whole entry): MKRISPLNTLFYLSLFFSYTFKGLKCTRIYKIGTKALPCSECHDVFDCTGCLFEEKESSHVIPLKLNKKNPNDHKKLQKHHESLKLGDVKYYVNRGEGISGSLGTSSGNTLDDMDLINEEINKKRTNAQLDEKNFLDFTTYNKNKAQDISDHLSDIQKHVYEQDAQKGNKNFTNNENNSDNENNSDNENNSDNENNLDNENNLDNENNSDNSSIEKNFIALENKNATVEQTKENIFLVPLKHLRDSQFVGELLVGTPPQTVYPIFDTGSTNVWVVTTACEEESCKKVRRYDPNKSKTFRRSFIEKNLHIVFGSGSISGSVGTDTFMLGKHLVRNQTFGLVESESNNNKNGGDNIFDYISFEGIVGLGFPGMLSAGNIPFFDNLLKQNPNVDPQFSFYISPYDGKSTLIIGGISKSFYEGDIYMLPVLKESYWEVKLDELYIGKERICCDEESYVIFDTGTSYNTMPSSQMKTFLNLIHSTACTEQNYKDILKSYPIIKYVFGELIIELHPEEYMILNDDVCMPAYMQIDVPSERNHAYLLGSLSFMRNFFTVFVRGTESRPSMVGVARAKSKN
For experiment [3], the target named is T1, Plasmepsin IX (Plasmodium falciparum, UniProt Q8ILG2).
T1 sequence (Q8ILG2 whole entry): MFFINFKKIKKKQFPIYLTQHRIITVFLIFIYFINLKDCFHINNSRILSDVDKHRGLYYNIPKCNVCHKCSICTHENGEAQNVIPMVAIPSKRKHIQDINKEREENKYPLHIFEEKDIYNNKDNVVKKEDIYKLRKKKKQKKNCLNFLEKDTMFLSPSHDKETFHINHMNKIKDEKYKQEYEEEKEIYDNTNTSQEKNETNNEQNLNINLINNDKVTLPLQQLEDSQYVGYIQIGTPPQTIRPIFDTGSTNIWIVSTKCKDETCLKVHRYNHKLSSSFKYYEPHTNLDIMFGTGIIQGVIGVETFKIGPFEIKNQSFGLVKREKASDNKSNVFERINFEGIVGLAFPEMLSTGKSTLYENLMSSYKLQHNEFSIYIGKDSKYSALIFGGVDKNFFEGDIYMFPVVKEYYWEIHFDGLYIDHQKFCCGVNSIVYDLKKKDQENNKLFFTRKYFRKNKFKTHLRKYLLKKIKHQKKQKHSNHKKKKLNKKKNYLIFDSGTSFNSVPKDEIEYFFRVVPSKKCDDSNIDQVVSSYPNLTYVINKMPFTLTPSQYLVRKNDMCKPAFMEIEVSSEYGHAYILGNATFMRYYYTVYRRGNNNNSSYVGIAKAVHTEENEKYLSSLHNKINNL
The experiment is described as follows: Inhibition of Plasmodium falciparum 3D7 HA-glms-tagged PMIX using DABCYL-HSFIQEGKEE-EDANS as substrate measured after 2 hrs by FRET assay.

The test system of experiment [4] is Plasmodium falciparum. Put plainly: Antimalarial activity Plasmodium falciparum Dd2 assessed as minimum inoculum for resistance measured up to 62 days by microscopy. Format: functional. The following applies: time <= 62 day.
Experiment [5] deals with Plasmodium falciparum. Put plainly: Antimalarial activity Plasmodium falciparum Dd2 assessed as EC90 fold pressure measured up to 62 days by microscopy. It counts as functional. The following applies: Dd2, 1488 h, time <= 62 day.

Structures are written as SMILES.

Regarding `CCC1(CC)CC(=O)N([C@H](c2ccccc2)c2cccc(C(=O)N[C@@H](C)c3ccccc3)c2)C(=N)N1`, the EC50 in experiment [1] amounted to 1 nM.

For `CC(C)CC(c1ccc(C(F)(F)F)c(C(=O)N2Cc3nccnc3C2)c1)N1C(=N)N[C@](CC2CC2)(c2ccccc2)CC1=O` (some centres not stated), the EC50 in experiment [1] is 17 nM. This EC50 lies about 17-fold higher than the previous one.

With `CC(C)[C@]1(C)CC(=O)N(Cc2cccc(C(=O)NC3COCc4ccccc43)c2)C(=N)N1` (mixture of isomers), in experiment [1], the 50% effective concentration (EC50) amounted to 53 nM.

In the case of `CCC1(CC)NC(=N)N(Cc2cc(F)cc(C(=O)N[C@@H](C)c3ccccc3)c2)C1=O`, in experiment [1], the EC50 was over 1000 nM.

For the compound `C[C@H](NC(=O)c1cc(F)cc(CN2C(=N)N[C@]3(C)CCCC[C@]3(C)C2=O)c1)c1ccccc1`, the EC50 in experiment [1] was over 1000 nM.

Compound `CC(C)[C@]1(C)CC(=O)N(Cc2cccc(C(=O)N3Cc4ccccc4C3)c2)C(=N)N1` displayed an EC50 in experiment [1] of over 1000 nM.

Consider `CC(C)[C@]1(C)CC(=O)N([C@@H](c2ccccc2)c2cccc(C(=O)N[C@@H](C)c3ccccc3)c2)C(=N)N1`, for which the EC50 in experiment [1] was 440 nM.

In turn, `C[C@H](NC(=O)c1cc(F)cc(CN2C(=N)NC(C)(C)CC2=O)c1)c1ccccc1` came in with an EC50 in experiment [1] of over 1000 nM.

In turn, `C[C@H](NC(=O)c1cc(F)cc(CN2C(=N)NC3(CCCCC3)CC2=O)c1)c1ccccc1` came in with an EC50 in experiment [1] of 250 nM.

In the case of `CC(C)[C@]1(C)CC(=O)N(Cc2cccc(C(=O)NC3CCNc4ccccc43)c2)C(=N)N1` (mixture of isomers), in experiment [1], the EC50 worked out at 64 nM.

For `C[C@H](NC(=O)c1cc(F)cc(CN2C(=N)N[C@@](CC3CC3)(c3ccccc3)CC2=O)c1)c1ccccc1`, in experiment [1], the midpoint of the response, the EC50, lay at 22 nM.

In experiment [1], `CC(C)[C@]1(C)CC(=O)N(Cc2cccc(C(=O)NC3CCc4ccccc43)c2)C(=N)N1` (mixture of isomers) gave an EC50 of 66 nM.

With `CC(C)[C@]1(C)CC(=O)N(Cc2cccc(C(=O)N[C@H]3CCOc4ccccc43)c2)C(=N)N1`, a half-maximal response in experiment [1] (EC50) required 1.5 nM.

In turn, `CCC1(CC)CC(=O)N(Cc2cc(C(=O)N[C@H]3CCOc4ccccc43)ccn2)C(=N)N1` came in with an EC50 in experiment [1] of 12 nM.

In experiment [2], `CC(C)[C@]1(C)CC(=O)N([C@H](c2ccccc2)c2cccc(C(=O)N[C@@H](C)c3ccccc3)c2)C(=N)N1` registered an IC50 of 1.9 nM. In experiment [1], it took 4.6 nM to reach a half-maximal effect (EC50).

`CCC1(CC)CC(=O)N([C@H](CCN2CCCC2)c2cccc(C(=O)N[C@@H](C)c3ccccc3)c2)C(=N)N1` gave an EC50 in experiment [1] of 8.7 nM.

With `CCC1(CC)CC(=O)N([C@@H]2CCOc3ccc(C(=O)N[C@@H]4c5ccccc5OC4(C)C)cc32)C(=N)N1`, the values for the IC50 in experiment [2] and in experiment [3] were 0.4 nM and 12 nM, respectively. The compound also showed an EC50 in experiment [1] of 1.4 nM.

The compound `CCC1(CC)CC(=O)N(Cc2cccc(C(=O)N[C@@H](C)c3ccccc3)c2)C(=N)N1` yielded an EC50 in experiment [1] of 114 nM.

Consider `C[C@H](NC(=O)c1cc(F)cc(CN2C(=N)NC(c3ccccc3)CC2=O)c1)c1ccccc1` (single isomer, unassigned), for which the 50% effective concentration (EC50) in experiment [1] was over 1000 nM.

Consider `CC(C)[C@]1(C)CC(=O)N(C(c2ccccc2)c2cccc(C(=O)N[C@@H](C)c3ccccc3)c2)C(=N)N1` (some centres not stated), for which, in experiment [4], the Activity is over 9. In experiment [1], this compound had an EC50 of 6.2 nM. For the same compound, in experiment [5], the EC90 turned out to be 80 nM.

In turn, `CCC1(CC)CC(=O)N([C@H](c2cccnc2)c2cccc(C(=O)N[C@@H](C)c3ccccc3)c2)C(=N)N1` returned an EC50 in experiment [1] of 1 nM.

`CC(C)C[C@@H](c1ccc(C(F)(F)F)c(C(=O)N2Cc3nccnc3C2)c1)N1C(=N)N[C@](CC2CC2)(c2ccccc2)CC1=O`: it took 690 nM to reach a half-maximal effect in experiment [1] (EC50).
